Experimental data from article PMC11489226 (Archives of Toxicology, 2024).
“And” between values parts separate entries of the source, which are not always exact repeats. Identical values can stand only once.

Key:
CYP2A6 = target: T1, CYP2A6 (Homo sapiens, UniProt P11509); experiment: Metabolism in transgenic HEK293 cells expressing CYP2A6; format: in vitro ADME; design: V5-His (vector-encoded) (C); expressed in transfected cells; details: 24 h; for Quantification of metabolites generated from PCB28, 52, and 101 / Metabolite concentration formed, range across cell clones: 20 µM parent PCB; for Quantification of metabolites generated from PCB28, 52, and 101: supernatant; for Metabolite concentration formed, range across cell clones: HEK293CYP2A6 cell lines
T1 sequence (P11509 1-494): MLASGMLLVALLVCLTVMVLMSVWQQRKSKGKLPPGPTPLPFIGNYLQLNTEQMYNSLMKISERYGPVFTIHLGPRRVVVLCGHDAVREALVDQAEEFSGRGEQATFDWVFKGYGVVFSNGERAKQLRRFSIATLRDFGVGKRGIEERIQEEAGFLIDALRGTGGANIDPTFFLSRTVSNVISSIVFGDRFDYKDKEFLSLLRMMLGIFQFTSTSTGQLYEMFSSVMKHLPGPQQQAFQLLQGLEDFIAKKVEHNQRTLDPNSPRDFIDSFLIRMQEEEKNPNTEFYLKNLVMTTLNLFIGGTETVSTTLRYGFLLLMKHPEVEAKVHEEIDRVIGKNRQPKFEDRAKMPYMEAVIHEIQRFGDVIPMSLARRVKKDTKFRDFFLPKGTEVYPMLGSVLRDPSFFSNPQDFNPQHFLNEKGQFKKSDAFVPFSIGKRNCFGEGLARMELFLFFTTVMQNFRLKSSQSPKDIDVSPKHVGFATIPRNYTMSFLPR
Procedure: (§1) For the generation of transgenic cell lines, we used semi-adherent HEK293 cells (DSMZ, ACC305, human embryonic kidney cells) which were cultured on a daily basis in DMEM medium supplemented with 10% (FCS) and 1% penicillin/streptomycin. In a first step CYP1A2, CYP2C8, CYP2C9, CYP3A4, CYP2A6, and CYP2E1 cDNA were cloned into the plasmid pcDNATM3.1/V5-His TOPO® using human liver RNA as a template and using the following primers: CYP1A2 for5′-[…]-3′, CYP1A2 rev 5′-[…]-3′; CYP2C8 for 5′-[…]-3′, CYP2C8 rev 5′-[…]-3′; CYP2C9 for 5′-[…]-3′, CYP2C9 rev 5′-[…]-3′; CYP3A4 for 5′-[…]-3′, CYP3A4 rev 5′-[…]-3′, CYP2A6 for 5′-[…]-3′, CYP2A6 rev 5′-[…]-3′; CYP2E1 for 5′-[…]-3′, CYP2E1 rev 5′-[…]-3′. Final constructs were verified with Sanger DNA sequencing and restriction digestion. For transfection, 3 × 10^6 HEK293 cells were pre-incubated in a 10 cm dish in DMEM medium with 10% FCS, but without antibiotics, for 18 to 24 h. When the cells reached approximately 70% confluency, they were transfected using TransIT-LT1 transfection reagent (Biozol, Eiching, Germany). The TransIT-LT1 reagent was warmed to room temperature and vortexed. 1.63 mL Opti-MEM, 16.25 µL plasmid DNA (1 µg/µL), and 48.75 µL TransIT-LT1 reagent were mixed and incubated for 15 to 30 min. The mixture was then added dropwise to the medium of the cells, and the cells were incubated again at 37 °C and 5% CO2. After 24 h, the medium was replaced with standard medium and geneticin was added for selection (1 mg/mL). Cells were selected for 6–8 weeks in bulk culture, and single cell clones were obtained subsequently by limiting dilution. Each clone was checked for insertion by PCR using genomic DNA as a template.
(§2) Parallel samples were run without the addition of PCBs. At a confluence of 80%, PCBs (20 μM each, dissolved in ethanol) were added and cells were incubated for 24 h before harvest of supernatants. Supernatants were diluted 1:2 with 80 μL acetate buffer 0.1 M (pH = 5.3). 100 μL of this dilution were further incubated with 100 μL of ammonium acetate buffer 0.1 M (pH = 5.3) and 5 μL of β-Glucuronidase/Arylsulfatase enzyme overnight in a drying oven at 37 °C for enzymatic hydrolysis to release conjugated compounds. 50 μL of a mix of internal standards (10 ng/mL) and 600 μL of methanol were added to the samples, then mixed by vortexing for 1 min and centrifuged for 10 min at 3400g. The individual supernatants were transferred to glass LC vials and evaporated to approximately 50 μL at 45 °C under a gentle stream of nitrogen. Finally, 0.1 mol/ L ammonium acetate buffer was added to a final volume of 100 μL and then transferred to an insert for analysis.
(§3) HEK293 cells overexpressing the respective CYP enzymes were seeded onto 6-well plates and were treated with or without 10 µM of the respective probe drug in DMEM medium for 24 hours at 37 °C and 5 % CO2. After incubation 200 µL DMEM were collected, cells were washed with PBS and adherent cells were lysed in 500 µL methanol for 20 minutes. Analytes were measured by LC-MS/MS either in methanol cell lysates or in DMEM supernatant.
(§4) 50 µL of DMEM samples were protein precipitated by adding 200 µL of methanol and were centrifuged for 20 min, 17,000 g and 4°C. Supernatants were diluted in water or 40 % methanol according to dilution factor. Methanol cell lysates were diluted ½ with water and centrifuged for 20 min, 17,000 g and 4°C. 5 µL of the processed samples were injected for LC-MS analysis.

CYP2E1 = CYP2E1 (Homo sapiens, UniProt P05181); experiment: Metabolism in transgenic HEK293 cells expressing CYP2E1; details: 20 µM parent PCB, 24 h, supernatant
Chain of CYP2E1 (P05181 whole entry): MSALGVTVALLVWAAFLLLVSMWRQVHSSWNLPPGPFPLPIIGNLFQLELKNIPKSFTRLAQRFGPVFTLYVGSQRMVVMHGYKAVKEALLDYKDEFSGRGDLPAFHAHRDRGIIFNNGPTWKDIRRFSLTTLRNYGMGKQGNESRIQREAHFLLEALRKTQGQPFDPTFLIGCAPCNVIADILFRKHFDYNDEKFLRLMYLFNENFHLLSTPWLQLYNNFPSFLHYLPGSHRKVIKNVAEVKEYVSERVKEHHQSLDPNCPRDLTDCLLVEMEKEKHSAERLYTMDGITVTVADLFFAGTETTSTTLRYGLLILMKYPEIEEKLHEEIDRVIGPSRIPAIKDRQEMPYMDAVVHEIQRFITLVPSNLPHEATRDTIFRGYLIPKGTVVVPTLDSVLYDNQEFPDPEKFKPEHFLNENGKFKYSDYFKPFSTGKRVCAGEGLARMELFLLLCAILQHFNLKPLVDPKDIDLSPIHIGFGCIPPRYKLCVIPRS
Procedure: as §1, §2, §3, §4

CYP3A4 = CYP3A4 (Homo sapiens, UniProt P08684); experiment: Metabolism in transgenic HEK293 cells expressing CYP3A4; details: 24 h; for Quantification of metabolites generated from PCB28, 52, and 101: 20 µM parent PCB, supernatant
Chain of CYP3A4 (P08684 whole entry): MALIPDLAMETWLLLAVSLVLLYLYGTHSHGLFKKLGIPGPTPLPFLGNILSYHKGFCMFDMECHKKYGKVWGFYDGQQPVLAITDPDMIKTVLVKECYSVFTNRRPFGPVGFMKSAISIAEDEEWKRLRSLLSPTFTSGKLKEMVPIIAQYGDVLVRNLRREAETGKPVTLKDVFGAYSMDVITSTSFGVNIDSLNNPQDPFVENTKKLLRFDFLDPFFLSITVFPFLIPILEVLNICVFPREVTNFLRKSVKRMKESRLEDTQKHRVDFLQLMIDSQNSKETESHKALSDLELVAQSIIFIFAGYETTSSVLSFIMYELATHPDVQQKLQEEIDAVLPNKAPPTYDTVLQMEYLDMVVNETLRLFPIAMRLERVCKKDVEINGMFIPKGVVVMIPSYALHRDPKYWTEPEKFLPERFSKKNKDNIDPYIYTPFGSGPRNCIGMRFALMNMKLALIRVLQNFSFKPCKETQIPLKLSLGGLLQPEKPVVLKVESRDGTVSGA
Procedure: as §1, §2, §3, §4

[1] = PCB concentrations in plasma of HELPcB participants (2010); format: in vivo, human; details: sample of 2010; for concentration at 2010 calendar year / concentration at 2010 calendar year of sampling: human, plasma, other: occupational exposure

In the case of `Oc1cc(Cl)cc(-c2cc(Cl)c(Cl)cc2Cl)c1Cl` [3´-OHCB101, 2,2′,4,5,5′-pentachloro-3′-biphenylol], the “Quantification of metabolites generated from PCB28, 52, and 101” value (from here on “Quantification of metabolites generated”) (CYP2A6; CYP2A6 Clone B7) is reported as 39,4 nM, the “Quantification of metabolites generated” value (CYP2A6; CYP2A6 Clone C4) is reported as 24,09 nM and the “Quantification of metabolites generated” value (CYP2A6; CYP2A6 Clone C5) is reported as 4,2 nM. For the same compound, the “Metabolite concentration formed, range across cell clones” value (CYP2A6) was 1.44–13.5 µg/L and 4.2–39.4 nM, the “Quantification of metabolites generated” value (CYP2E1; CYP2E1 Clone B4) was “<LOQ” and the “Quantification of metabolites generated” value (CYP2E1; CYP2E1 Clone B5) was “<LOQ”. The “Quantification of metabolites generated” value (CYP2E1; CYP2E1 Clone E6) was “<LOQ”, the “Quantification of metabolites generated” value (CYP3A4; CYP3A4 Clone D10) was “<LOQ” and the “Quantification of metabolites generated” value (CYP3A4; CYP3A4 Clone E6) was “<LOQ”.

In the case of `Oc1cc(Cl)c(-c2cc(Cl)c(Cl)cc2Cl)cc1Cl` [4´-OHCB101, 2,2′,4,5,5′-Pentachloro-4′-biphenylol], the “Quantification of metabolites generated” value (CYP2A6; CYP2A6 Clone B7) is reported as 441,30 nM, the “Quantification of metabolites generated” value (CYP2A6; CYP2A6 Clone C4) is reported as 272,55 nM and the “Quantification of metabolites generated” value (CYP2A6; CYP2A6 Clone C5) is reported as 55,93 nM. The “Metabolite concentration formed, range across cell clones” value (CYP2A6) was 19.15- 151.1 µg/L and 55.93–441.3 nM, the “Quantification of metabolites generated” value (CYP2E1; CYP2E1 Clone B4) was 3,84 nM and the “Quantification of metabolites generated” value (CYP2E1; CYP2E1 Clone B5) was 4,02 nM. For the same compound, the “Quantification of metabolites generated” value (CYP2E1; CYP2E1 Clone E6) was 5,08 nM, the “Quantification of metabolites generated” value (CYP3A4; CYP3A4 Clone D10) was “<LOQ” and the “Quantification of metabolites generated” value (CYP3A4; CYP3A4 Clone E6) was “<LOQ”.

In the case of `O=c1ccc2ccccc2o1` [Coumarin, reference compound], the Conversion product (CYP2A6; HEK293CYP2A6, 10 µM substrate) is reported as 7-hydroxycoumarin.

For `Cc1ncc2n1-c1ccc(Cl)cc1C(c1ccccc1F)=NC2` [Midazolam, reference compound], the Conversion product (CYP3A4; HEK293CYP3A4, 10 µM substrate) was 1-hydroxy-midazolam.

With `Clc1cc(Cl)c(-c2ccc(Cl)c(Cl)c2Cl)cc1Cl` [PCB138] the Concentration in plasma ([1]; HELPcB participant AD) was 0.984 µg/L, the Concentration in plasma ([1]; HELPcB participant AE) was 0.773 µg/L and the Concentration in plasma ([1]; HELPcB participant eight) was 0.358 µg/L. It also gave a Concentration in plasma ([1]; HELPcB participant five) of 1.886 µg/L, a Concentration in plasma ([1]; HELPcB participant four) of 0.610 µg/L and a Concentration in plasma ([1]; HELPcB participant one) of 2.083 µg/L. It also gave a Concentration in plasma ([1]; HELPcB participant seven) of 0.738 µg/L, a Concentration in plasma ([1]; HELPcB participant six) of 14.883 µg/L and a Concentration in plasma ([1]; HELPcB participant three) of 1.047 µg/L. The Concentration in plasma ([1]; HELPcB participant two) was 0.718 µg/L.

Compound `Clc1cc(Cl)c(-c2cc(Cl)c(Cl)cc2Cl)cc1Cl` [PCB153] has a Concentration in plasma ([1]; HELPcB participant AD) of 1.397 µg/L, a Concentration in plasma ([1]; HELPcB participant AE) of 1.227 µg/L and a Concentration in plasma ([1]; HELPcB participant eight) of 0.59 µg/L. It also gave a Concentration in plasma ([1]; HELPcB participant five) of 1.765 µg/L, a Concentration in plasma ([1]; HELPcB participant four) of 0.855 µg/L and a Concentration in plasma ([1]; HELPcB participant one) of 1.907 µg/L. The Concentration in plasma ([1]; HELPcB participant seven) was 1.081 µg/L, the Concentration in plasma ([1]; HELPcB participant six) was 15.630 µg/L and the Concentration in plasma ([1]; HELPcB participant three) was 1.254 µg/L. For the same compound, the Concentration in plasma ([1]; HELPcB participant two) was 0.945 µg/L.

`Clc1cc(Cl)c(-c2cc(Cl)c(Cl)c(Cl)c2Cl)cc1Cl` [PCB180] showed a concentration at 2010 calendar year ([1]; HELPcB participant AD) of 1.16 ng/mL, a concentration at 2010 calendar year ([1]; HELPcB participant AE) of 1.28 ng/mL and a concentration at 2010 calendar year ([1]; HELPcB participant eight) of 0.377 ng/mL. For the same compound, the concentration at 2010 calendar year ([1]; HELPcB participant five) was 0.951 ng/mL, the concentration at 2010 calendar year ([1]; HELPcB participant four) was 0.508 ng/mL and the concentration at 2010 calendar year of sampling ([1]; HELPcB participant one) was 0.998 ng/mL. For the same compound, the concentration at 2010 calendar year ([1]; HELPcB participant seven) was 0.934 ng/mL, the concentration at 2010 calendar year ([1]; HELPcB participant six) was 8.85 ng/mL and the concentration at 2010 calendar year ([1]; HELPcB participant three) was 0.95 ng/mL. For the same compound, the concentration at 2010 calendar year of sampling ([1]; HELPcB participant two) was 0.612 ng/mL.
